The target in assay [1] is T1, SUMO-activating enzyme (Homo sapiens, UniProt Q9UBT2). The assay can be described thus: inhibitors of in vitro SUMOylation cascade, primary screen, biochemical, HTRF, uHTS (AID 2006). The format is protein-complex assay.
Assay [2] has as its target Beta-galactosidase (Escherichia coli, UniProt Q8VNN2). Briefly: beta-galactosidase enzyme inhibitors and activators, dose response, artefact control for CCR6 antagonist project, biochemical, E. coli enzyme, set 3 (AID 504712). Format: functional.
Assay [3] addresses T1, SUMO-activating enzyme. The assay can be described thus: SUMOylation inhibitor hit validation, confirmation, SUMOylation inhibitor project, biochemical, AlphaScreen (AID 2018). Format: functional.
In assay [4] the target is T2, C-C chemokine receptor type 6 (Homo sapiens, UniProt P51684).
T2 sequence (P51684 whole entry): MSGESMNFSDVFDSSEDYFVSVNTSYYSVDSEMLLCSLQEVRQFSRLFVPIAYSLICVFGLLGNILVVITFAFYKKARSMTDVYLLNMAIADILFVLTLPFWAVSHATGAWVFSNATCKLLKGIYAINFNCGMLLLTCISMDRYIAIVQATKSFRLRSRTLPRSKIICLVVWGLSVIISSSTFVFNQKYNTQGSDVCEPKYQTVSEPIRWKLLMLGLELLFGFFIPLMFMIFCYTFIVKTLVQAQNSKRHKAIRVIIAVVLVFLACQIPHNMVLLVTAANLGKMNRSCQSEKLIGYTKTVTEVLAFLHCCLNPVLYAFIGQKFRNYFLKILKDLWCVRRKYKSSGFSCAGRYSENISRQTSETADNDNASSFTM
Briefly: CCR6 receptor antagonists, dose response, cell-based, luminescent beta-arrestin readout (AID 504728). The format is functional.

Assay [5] concerns the target T3, Alkaline phosphatase, tissue-nonspecific isozyme (Homo sapiens, UniProt P05186).
T3 sequence (P05186 whole entry): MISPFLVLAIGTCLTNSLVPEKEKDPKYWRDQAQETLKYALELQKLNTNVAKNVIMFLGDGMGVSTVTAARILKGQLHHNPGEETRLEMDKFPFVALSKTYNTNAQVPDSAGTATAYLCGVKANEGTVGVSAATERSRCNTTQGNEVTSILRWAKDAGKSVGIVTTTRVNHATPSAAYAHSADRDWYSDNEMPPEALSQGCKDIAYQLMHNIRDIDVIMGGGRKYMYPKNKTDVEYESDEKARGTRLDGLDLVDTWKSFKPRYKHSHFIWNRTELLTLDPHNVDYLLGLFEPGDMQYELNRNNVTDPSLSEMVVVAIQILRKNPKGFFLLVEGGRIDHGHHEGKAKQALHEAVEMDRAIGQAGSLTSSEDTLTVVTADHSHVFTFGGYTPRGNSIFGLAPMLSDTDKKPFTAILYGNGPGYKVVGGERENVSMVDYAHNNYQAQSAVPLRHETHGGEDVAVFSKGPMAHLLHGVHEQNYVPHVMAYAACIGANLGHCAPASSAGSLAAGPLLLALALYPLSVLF
The assay can be described thus: TNAP enzyme inhibition by screening hits, dose response, selectivity assay for mouse IAP inhibitor project, biochemical, human TNAP, uHTS hits (AID 488906). The format is functional.

The target in assay [6] is Intestinal-type alkaline phosphatase (Mus musculus, UniProt P24822). The assay can be described thus: PubChem AID 488785. The format is functional.
Assay [7] concerns the target Intestinal-type alkaline phosphatase (Homo sapiens, UniProt P09923). Briefly: inhibition of human intestinal alkaline phosphatase – biochemical, dose response (AID 488876). Format: functional.
Assay [8] has as its system H9c2. The assay can be described thus: cells. The format is functional, cell-based. As to conditions: Rattus norvegicus, H9c2, Myocardium.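 Note: confirmatory concentration-response retest of ultra-high-throughput screening hits for modulation of myocardial damage; cell death induced by hydrogen peroxide oxidative stress; compound pretreatment for 60 min then peroxide exposure for 2 h; potency is for protecting the cells against peroxide damage rather than for killing them.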
Assay [9] has as its target Peroxisome proliferator-activated receptor gamma/Nuclear receptor coactivator 3 (Homo sapiens, UniProt P37231). Briefly: TR-FRET dose response biochemical High Throughput Screening assay for agonists of the steroid receptor coactivator 3 (SRC-3) recruitment by the peroxisome proliferator-activated receptor gamma (PPAR gamma): non-selective agonists. [Related pubchem assays: 1301 (Confirmation screen.), 1048 (Primary screen.)]. Format: functional.

Assay [10] has as its target Peroxisome proliferator-activated receptor gamma/Nuclear receptor coactivator 1 (Homo sapiens, UniProt P37231). Briefly: TR-FRET dose response biochemical High Throughput Screening assay for agonists of the steroid receptor coactivator 1 (SRC-1) recruitment by the peroxisome proliferator-activated receptor gamma (PPAR gamma): non-selective agonists. [Related pubchem assays (depositor defined):AID1300, AID1808, AID504735, AID631]. The format is protein assay.

Assay [11] has as its target Peroxisome proliferator-activated receptor gamma/Nuclear receptor coactivator 2 (Homo sapiens, UniProt P37231). Briefly: TR-FRET dose response biochemical High Throughput Screening assay for agonists of the steroid receptor coactivator 2 (SRC-2) recruitment by the peroxisome proliferator-activated receptor gamma (PPAR gamma): non-selective agonists. [Related pubchem assays: 1297, 1032 ]. The format is functional.

This note sets out measurements from ChEMBL document CHEMBL1201862, “PubChem BioAssay data set” (2004).

The source made the active and inactive calls.

T1 sequence (Q9UBE0 whole entry): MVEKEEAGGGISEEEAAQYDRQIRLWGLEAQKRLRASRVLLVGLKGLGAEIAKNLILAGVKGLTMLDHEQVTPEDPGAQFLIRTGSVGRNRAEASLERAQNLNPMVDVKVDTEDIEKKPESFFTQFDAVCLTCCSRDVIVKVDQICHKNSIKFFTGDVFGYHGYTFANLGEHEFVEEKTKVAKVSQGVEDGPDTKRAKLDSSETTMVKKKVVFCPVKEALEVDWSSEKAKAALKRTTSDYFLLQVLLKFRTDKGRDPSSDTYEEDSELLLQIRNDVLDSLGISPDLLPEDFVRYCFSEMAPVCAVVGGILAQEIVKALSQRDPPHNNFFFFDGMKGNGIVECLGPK
T1 sequence (Q9UBT2 whole entry): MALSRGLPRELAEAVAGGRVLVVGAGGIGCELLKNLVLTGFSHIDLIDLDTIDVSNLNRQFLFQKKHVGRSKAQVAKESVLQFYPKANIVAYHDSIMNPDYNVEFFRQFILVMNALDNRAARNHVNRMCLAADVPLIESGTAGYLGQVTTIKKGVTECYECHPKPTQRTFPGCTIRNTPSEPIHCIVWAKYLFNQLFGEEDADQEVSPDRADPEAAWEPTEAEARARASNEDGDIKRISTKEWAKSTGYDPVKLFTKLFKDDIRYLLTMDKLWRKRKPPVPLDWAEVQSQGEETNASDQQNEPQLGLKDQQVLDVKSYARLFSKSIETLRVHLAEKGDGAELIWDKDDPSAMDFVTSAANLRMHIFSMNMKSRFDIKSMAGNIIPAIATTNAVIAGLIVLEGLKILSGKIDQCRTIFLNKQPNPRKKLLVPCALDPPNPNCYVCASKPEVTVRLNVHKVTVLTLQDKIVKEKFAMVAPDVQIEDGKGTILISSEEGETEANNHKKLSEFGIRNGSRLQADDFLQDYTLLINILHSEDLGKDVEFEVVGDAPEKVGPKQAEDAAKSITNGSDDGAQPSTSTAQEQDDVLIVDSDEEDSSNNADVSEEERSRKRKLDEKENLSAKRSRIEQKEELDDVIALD
Chain of Peroxisome proliferator-activated receptor gamma/Nuclear receptor coactivator 2 (P37231 whole entry): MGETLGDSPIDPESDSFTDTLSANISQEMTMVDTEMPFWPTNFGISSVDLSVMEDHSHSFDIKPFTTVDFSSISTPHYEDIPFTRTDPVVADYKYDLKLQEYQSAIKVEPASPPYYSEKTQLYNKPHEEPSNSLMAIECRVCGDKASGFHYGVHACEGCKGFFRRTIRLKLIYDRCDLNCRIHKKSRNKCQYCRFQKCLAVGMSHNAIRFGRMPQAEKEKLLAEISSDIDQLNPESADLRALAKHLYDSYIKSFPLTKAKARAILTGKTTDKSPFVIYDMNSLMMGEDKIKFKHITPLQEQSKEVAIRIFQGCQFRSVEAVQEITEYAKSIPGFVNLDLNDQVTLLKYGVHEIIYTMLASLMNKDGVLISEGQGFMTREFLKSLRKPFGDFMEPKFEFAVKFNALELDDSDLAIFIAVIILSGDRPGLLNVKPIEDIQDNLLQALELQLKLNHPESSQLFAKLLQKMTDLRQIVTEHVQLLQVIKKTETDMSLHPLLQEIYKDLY
Chain of Peroxisome proliferator-activated receptor gamma/Nuclear receptor coactivator 2 (Q15596 whole entry, further chain): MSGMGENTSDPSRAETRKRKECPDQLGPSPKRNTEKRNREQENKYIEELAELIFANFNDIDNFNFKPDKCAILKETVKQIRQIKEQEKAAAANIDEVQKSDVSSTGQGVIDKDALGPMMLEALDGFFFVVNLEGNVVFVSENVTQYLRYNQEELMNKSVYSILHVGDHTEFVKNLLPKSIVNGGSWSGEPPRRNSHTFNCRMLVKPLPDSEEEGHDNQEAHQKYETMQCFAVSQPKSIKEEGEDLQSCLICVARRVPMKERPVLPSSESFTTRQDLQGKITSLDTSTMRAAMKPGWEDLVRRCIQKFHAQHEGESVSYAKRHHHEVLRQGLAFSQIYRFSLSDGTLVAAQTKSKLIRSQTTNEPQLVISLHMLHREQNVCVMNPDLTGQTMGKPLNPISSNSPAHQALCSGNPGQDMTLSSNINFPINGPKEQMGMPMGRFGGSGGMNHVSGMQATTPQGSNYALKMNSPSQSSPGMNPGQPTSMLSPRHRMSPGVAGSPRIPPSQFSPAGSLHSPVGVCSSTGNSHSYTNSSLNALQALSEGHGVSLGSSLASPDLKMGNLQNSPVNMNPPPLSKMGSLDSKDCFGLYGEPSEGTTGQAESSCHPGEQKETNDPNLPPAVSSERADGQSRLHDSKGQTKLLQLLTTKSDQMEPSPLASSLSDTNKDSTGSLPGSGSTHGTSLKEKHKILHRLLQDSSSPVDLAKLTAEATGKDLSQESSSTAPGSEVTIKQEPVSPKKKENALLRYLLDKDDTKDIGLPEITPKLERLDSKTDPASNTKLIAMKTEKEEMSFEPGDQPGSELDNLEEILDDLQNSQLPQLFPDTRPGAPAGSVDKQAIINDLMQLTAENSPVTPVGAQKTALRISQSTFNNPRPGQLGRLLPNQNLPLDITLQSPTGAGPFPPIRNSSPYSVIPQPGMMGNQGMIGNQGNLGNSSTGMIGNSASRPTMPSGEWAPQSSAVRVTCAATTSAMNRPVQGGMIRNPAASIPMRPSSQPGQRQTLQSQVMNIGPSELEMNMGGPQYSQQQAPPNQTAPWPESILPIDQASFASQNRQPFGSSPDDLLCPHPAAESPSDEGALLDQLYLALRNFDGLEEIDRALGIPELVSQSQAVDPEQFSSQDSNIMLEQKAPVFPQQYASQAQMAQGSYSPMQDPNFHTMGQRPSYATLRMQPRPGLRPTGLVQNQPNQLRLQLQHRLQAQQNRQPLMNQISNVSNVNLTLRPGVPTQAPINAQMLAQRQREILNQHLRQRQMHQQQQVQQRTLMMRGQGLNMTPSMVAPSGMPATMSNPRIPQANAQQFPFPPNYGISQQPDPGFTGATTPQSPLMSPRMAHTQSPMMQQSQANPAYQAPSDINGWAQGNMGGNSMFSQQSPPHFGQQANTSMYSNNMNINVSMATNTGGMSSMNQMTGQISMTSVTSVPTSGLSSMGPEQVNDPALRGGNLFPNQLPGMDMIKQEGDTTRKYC
Chain of Peroxisome proliferator-activated receptor gamma/Nuclear receptor coactivator 1 (P37231 whole entry): as the sequence (P37231 whole entry) above
Chain of Peroxisome proliferator-activated receptor gamma/Nuclear receptor coactivator 1 (Q15788 whole entry, further chain): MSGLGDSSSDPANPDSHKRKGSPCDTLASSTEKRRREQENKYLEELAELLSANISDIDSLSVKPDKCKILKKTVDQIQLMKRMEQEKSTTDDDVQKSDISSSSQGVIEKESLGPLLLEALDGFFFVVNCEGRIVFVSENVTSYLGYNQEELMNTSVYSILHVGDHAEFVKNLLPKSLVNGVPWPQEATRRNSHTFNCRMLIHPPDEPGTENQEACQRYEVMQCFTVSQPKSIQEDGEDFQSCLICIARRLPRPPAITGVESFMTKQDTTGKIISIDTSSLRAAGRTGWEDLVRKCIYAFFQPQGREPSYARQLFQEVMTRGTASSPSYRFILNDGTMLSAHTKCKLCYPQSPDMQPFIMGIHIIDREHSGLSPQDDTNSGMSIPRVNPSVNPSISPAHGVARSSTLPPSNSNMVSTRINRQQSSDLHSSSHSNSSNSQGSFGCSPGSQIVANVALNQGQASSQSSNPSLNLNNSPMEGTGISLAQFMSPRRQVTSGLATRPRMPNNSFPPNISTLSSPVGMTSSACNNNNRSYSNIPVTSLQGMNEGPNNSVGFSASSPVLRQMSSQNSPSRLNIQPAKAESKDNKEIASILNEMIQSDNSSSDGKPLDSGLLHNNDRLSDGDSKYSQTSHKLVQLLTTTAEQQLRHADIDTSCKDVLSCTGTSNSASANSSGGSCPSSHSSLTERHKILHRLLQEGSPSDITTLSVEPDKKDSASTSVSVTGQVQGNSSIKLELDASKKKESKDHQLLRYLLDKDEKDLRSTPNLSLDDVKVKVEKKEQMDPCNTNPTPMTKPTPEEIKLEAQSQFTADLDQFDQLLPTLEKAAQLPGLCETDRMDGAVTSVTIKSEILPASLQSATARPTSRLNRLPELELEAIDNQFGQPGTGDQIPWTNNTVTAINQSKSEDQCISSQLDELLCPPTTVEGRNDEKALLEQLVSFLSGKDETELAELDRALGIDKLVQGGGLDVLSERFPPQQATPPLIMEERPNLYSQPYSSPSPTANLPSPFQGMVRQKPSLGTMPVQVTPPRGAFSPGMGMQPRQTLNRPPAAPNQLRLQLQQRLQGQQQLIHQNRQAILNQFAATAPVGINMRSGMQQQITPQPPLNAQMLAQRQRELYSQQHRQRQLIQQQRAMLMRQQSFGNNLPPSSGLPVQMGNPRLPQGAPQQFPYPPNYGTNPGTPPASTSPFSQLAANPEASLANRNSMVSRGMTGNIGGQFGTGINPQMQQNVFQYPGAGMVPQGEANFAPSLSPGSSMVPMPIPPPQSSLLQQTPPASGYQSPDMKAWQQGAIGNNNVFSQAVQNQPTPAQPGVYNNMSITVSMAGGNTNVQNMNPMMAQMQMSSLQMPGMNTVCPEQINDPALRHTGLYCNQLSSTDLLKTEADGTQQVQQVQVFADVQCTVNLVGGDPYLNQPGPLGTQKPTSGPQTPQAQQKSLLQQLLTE

In the case of `N#C/C(=C\c1ccc(-c2ccc([N+](=O)[O-])cc2)o1)C(=O)Nc1nc(-c2cccs2)cs1`, the IC50 in [1] was 8.52 µM (active); in assay [2] it was > 66.6 µM (inactive); in [3] it was 18.2 µM (active); in assay [4], > 66.6 µM (inactive).

`COc1ccc(CN2C3CCCC2CC(NC(=O)Nc2cccc(C)c2)C3)cc1` (stereo unspecified): the IC50 in assay [5] is 32.2 µM (active); in assay [6], 11 µM (active); in assay [7], 22.7 µM (active).

`O=C(Nc1cccnc1)c1sc(Nc2ccccc2)nc1-c1ccccc1`: in assay [8], the IC50 was > 79 µM (inactive). Further, the 50% effective concentration (EC50) in assay [9] is 40 µM (not active); in assay [10] it was 2.72 µM (active); in assay [11] it was 3.26 µM (active).
